# According to patent publication US8247211B2, “Glycopeptide antibiotics” (American Cyanamid Company, priority 2001, dated 2012):
# Tests used:
# Experiment in all cases: In vitro antibacterial evaluation: minimum inhibitory concentration (MIC), broth dilution method
# Format in all cases: cell-based
# Enterococcus sp. = settings: 18 hours at 35° C.
# How it was run: (§1)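 MIC by broth dilution in Mueller-Hinton II medium following NCCLS M7-A2. Inoculum was 5×10^5 CFU/mL and antibiotic was tested over 64-0.06 μg/mL. Gram-positive panel included clinical isolates resistant to methicillin, penicillin and/or vancomycin.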
# Escherichia coli = settings: 18 hours at 35° C.
# How it was run: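 An MIC is reported for each organism as the least concentration giving inhibition, using broth dilution over 64-0.06 μg/mL with a 5×10^5 CFU/mL inoculum.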
# Staphylococcus sp. = system: Staphylococcus sp.
# How it was run: as §1
# Streptococcus sp. = settings: 18 hours at 35° C.
# How it was run: as §1
# [1] = broth dilution, inoculum 5×10^5 CFU/mL
smiles,measurement,setting,value
CC(c1ccc(Cl)cc1)C1NC(=O)CNC(=O)C(CO)NC(=O)C(C(O)C2CNC(=N)N2C2OC(CO)C(O)C(O)C2O)NC(=O)C(C(O)C2CNC(=N)N2)NC(=O)C(Cc2ccc(OC3OC(CO)C(OC4OC5COC(C6CCCCC6)OC5C(O)C4O)C(O)C3O)cc2)NC1=O (stereo not drawn) [Example 193],MIC Enterococcus avium (GC 4558),Enterococcus sp.; Enterococcus avium (GC 4558),2 µg/mL
same,MIC Enterococcus faecalis (ATCC 29212),Enterococcus sp.; Enterococcus faecalis (ATCC 29212),1 µg/mL
same,MIC Enterococcus faecalis (GC 2242),Enterococcus sp.; Enterococcus faecalis (GC 2242),1 µg/mL
same,MIC Enterococcus faecalis (GC 2691),Enterococcus sp.; Enterococcus faecalis (GC 2691),2 µg/mL
same,MIC Enterococcus faecalis (GC 3059),Enterococcus sp.; Enterococcus faecalis (GC 3059),1 µg/mL
same,MIC Enterococcus faecalis (GC 4552),Enterococcus sp.; Enterococcus faecalis (GC 4552),1 µg/mL
same,MIC Enterococcus faecalis (GC 4553),Enterococcus sp.; Enterococcus faecalis (GC 4553),2 µg/mL
same,MIC Enterococcus faecalis (GC 4554),Enterococcus sp.; Enterococcus faecalis (GC 4554),2 µg/mL
same,MIC Enterococcus faecalis (GC 6189),Enterococcus sp.; Enterococcus faecalis (GC 6189),0.5 µg/mL
same,MIC Enterococcus faecium (GC 2243),Enterococcus sp.; Enterococcus faecium (GC 2243),1 µg/mL
same,MIC Enterococcus faecium (GC 4556),Enterococcus sp.; Enterococcus faecium (GC 4556),1 µg/mL
same,MIC Enterococcus faecium (GC 4557),Enterococcus sp.; Enterococcus faecium (GC 4557),2 µg/mL
same,MIC Enterococcus avium (GC 4558),Enterococcus sp.; [1],2 µg/mL
same,MIC Enterococcus faecalis (ATCC 29212),Enterococcus sp.; [1],1 µg/mL
same,MIC Enterococcus faecalis (GC 2242),Enterococcus sp.; [1],1 µg/mL
same,MIC Enterococcus faecalis (GC 2691),Enterococcus sp.; [1],2 µg/mL
same,MIC Enterococcus faecalis (GC 3059),Enterococcus sp.; [1],1 µg/mL
same,MIC Enterococcus faecalis (GC 4552),Enterococcus sp.; [1],1 µg/mL
same,MIC Enterococcus faecalis (GC 4553),Enterococcus sp.; [1],2 µg/mL
same,MIC Enterococcus faecalis (GC 4554),Enterococcus sp.; [1],2 µg/mL
same,MIC Enterococcus faecalis (GC 6189),Enterococcus sp.; [1],0.5 µg/mL
same,MIC Enterococcus faecium (GC 2243),Enterococcus sp.; [1],1 µg/mL
same,MIC Enterococcus faecium (GC 4556),Enterococcus sp.; [1],1 µg/mL
same,MIC Enterococcus faecium (GC 4557),Enterococcus sp.; [1],2 µg/mL
same,MIC Escherichia coli (GC 4559),Escherichia coli; Escherichia coli (GC 4559),32 µg/mL
same,MIC Escherichia coli (GC 4560),Escherichia coli; Escherichia coli (GC 4560),2 µg/mL
same,MIC Staphylococcus aureus (ATCC 29213),Staphylococcus sp.; strain ATCC 29213,0.5 µg/mL
same,MIC Staphylococcus aureus (GC 1131),Staphylococcus sp.; strain GC 1131,1 µg/mL
same,MIC Staphylococcus aureus (GC 3051),Staphylococcus sp.; strain GC 3051,1 µg/mL
same,MIC Staphylococcus aureus (GC 3053),Staphylococcus sp.; strain GC 3053,0.5 µg/mL
same,MIC Staphylococcus aureus (GC 4541),Staphylococcus sp.; strain GC 4541,0.5 µg/mL
same,MIC Staphylococcus aureus (GC 4542),Staphylococcus sp.; strain GC 4542,0.25 µg/mL
same,MIC Staphylococcus aureus-SMITH (GC 4543),Staphylococcus sp.; strain GC 4543,0.5 µg/mL
same,MIC Staphylococcus aureus (GC 4544),Staphylococcus sp.; strain GC 4544,1 µg/mL
same,MIC Staphylococcus aureus (GC 4545),Staphylococcus sp.; strain GC 4545,0.5 µg/mL
same,MIC Staphylococcus haemolyticus (GC 4546),Staphylococcus sp.; strain GC 4546,0.5 µg/mL
same,MIC Coagulase Negative Staphylococcus (GC 4547),Staphylococcus sp.; strain GC 4547,1 µg/mL
same,MIC Coagulase Negative Staphylococcus (GC 4548),Staphylococcus sp.; strain GC 4548,0.25 µg/mL
same,MIC Coagulase Negative Staphylococcus (GC 4549),Staphylococcus sp.; strain GC 4549,0.25 µg/mL
same,MIC Coagulase Negative Staphylococcus (GC 4551),Staphylococcus sp.; strain GC 4551,0.5 µg/mL
same,MIC Coagulase Negative Staphylococcus (GC 6257),Staphylococcus sp.; strain GC 6257,0.25 µg/mL
same,MIC Streptococcus agalactiae (GC 4564),Streptococcus sp.; Streptococcus agalactiae (GC 4564),<0.06 µg/mL
same,MIC Streptococcus pneumoniae (ATCC 6301),Streptococcus sp.; Streptococcus pneumoniae (ATCC 6301),0.12 µg/mL
same,MIC Streptococcus pneumoniae (GC 1894),Streptococcus sp.; Streptococcus pneumoniae (GC 1894),<0.06 µg/mL
same,MIC Streptococcus pneumoniae (GC 4565),Streptococcus sp.; Streptococcus pneumoniae (GC 4565),<0.06 µg/mL
same,MIC Streptococcus pyogenes (GC 4563),Streptococcus sp.; Streptococcus pyogenes (GC 4563),<0.06 µg/mL
same,MIC Streptococcus agalactiae (GC 4564),Streptococcus sp.; [1],<0.06 µg/mL
same,MIC Streptococcus pneumoniae (ATCC 6301),Streptococcus sp.; [1],0.12 µg/mL
same,MIC Streptococcus pneumoniae (GC 1894),Streptococcus sp.; [1],<0.06 µg/mL
same,MIC Streptococcus pneumoniae (GC 4565),Streptococcus sp.; [1],<0.06 µg/mL
same,MIC Streptococcus pyogenes (GC 4563),Streptococcus sp.; [1],<0.06 µg/mL
